# From ChEMBL document CHEMBL5137032, “Design, synthesis of DNA-interactive 4-thiazolidinone-based indolo-/pyrroloazepinone conjugates as potential cytotoxic and topoisomerase I inhibitors” (Eur J Med Chem, 2022)
# The source made the active and inactive calls. No cut-off for these calls is given here.
# Columns and labels:
# [1] = target: DNA topoisomerase 2-alpha (Homo sapiens) (UniProt P11388); assay: Inhibition of DNA topoisomerase 2 (unknown origin) assessed as reduction in decatenation using kDNA as substrate incubated for 30 mins measured by agarose gel electrophoresis method
# A549 [2] = assay: Cytotoxicity against human A549 cells assessed as cell growth inhibition incubated for 48 hrs by MTT assay; format: functional, cell-based; settings: A549, 48 h
# A549 [3] = assay: Induction of apoptosis in human A549 cells assessed as necrotic cells at 0.625 uM incubated for 48 hrs by Annexin V-FITC/propidium iodide staining based flow cytometric analysis; format: functional
# A549 [4] = assay: Induction of apoptosis in human A549 cells assessed as cell shrinkage at 0.625 to 2.5 uM incubated for 48 hrs by AO/EB staining based fluorescence microscopy; format: functional; settings: dose 0.625-2.5 µM, DDE = dose-dependent effect
# HCT-116 = assay: Cytotoxicity against human HCT-116 cells assessed as cell growth inhibition incubated for 48 hrs by MTT assay; format: functional, cell-based; settings: HCT-116, 48 h
# Calf thymus DNA [5] = assay: Binding affinity to calf thymus DNA assessed as hyperchromicity at 10 uM by circular dichroism spectroscopy; format: nucleic-acid assay; settings: Bos taurus
# A549 [6] = assay: Induction of apoptosis in human A549 cells assessed as late apoptotic cells at 2.5 uM incubated for 48 hrs by Annexin V-FITC/propidium iodide staining based flow cytometric analysis; format: functional
# A549 [7] = assay: Anti-migration activity in human A549 cells assessed as distance travelled at 2.5 uM incubated for 48 hrs by wound healing assay based phase contrast microscopy; format: functional
# A549 [8] = assay: Induction of apoptosis in human A549 cells assessed as chromatin condensation at 0.625 to 2.5 uM incubated for 48 hrs by AO/EB staining based fluorescence microscopy; format: functional, cell-based; settings: dose 0.625-2.5 µM, DDE = dose-dependent effect
# A549 [9] = assay: Anti-migration activity in human A549 cells assessed as distance travelled at 1.25 uM incubated for 48 hrs by wound healing assay based phase contrast microscopy; format: functional
# MCF7 = assay: Cytotoxicity against human MCF7 cells assessed as cell growth inhibition incubated for 48 hrs by MTT assay; format: functional, cell-based; settings: MCF7, 48 h
# A549 [10] = assay: Inhibition of cell migration in human A549 cells at 0.625 to 2.5 uM incubated for 48 hrs by wound healing assay based phase contrast microscopy; format: functional; settings: dose 0.625-2.5 µM, DDE = dose-dependent effect
# HT-29 = assay: Cytotoxicity against human HT-29 cells assessed as cell growth inhibition incubated for 48 hrs by MTT assay; format: functional, cell-based; settings: HT-29, 48 h
# A549 [11] = assay: Induction of apoptosis in human A549 cells assessed as cell shrinkage at 0.625 to 2.5 uM incubated for 48 hrs by phase contrast microscopy; format: functional, cell-based; settings: dose 0.625-2.5 µM, DDE = dose-dependent effect
# DNA topoisomerase 1 = target: T1, DNA topoisomerase 1 (Homo sapiens, UniProt P11387); assay: Inhibition of human DNA topoisomerase 1 assessed as reduction in pBR322 DNA relaxation incubated for 1 hrs measured by agarose gel electrophoresis method
# T1 sequence (P11387 whole entry): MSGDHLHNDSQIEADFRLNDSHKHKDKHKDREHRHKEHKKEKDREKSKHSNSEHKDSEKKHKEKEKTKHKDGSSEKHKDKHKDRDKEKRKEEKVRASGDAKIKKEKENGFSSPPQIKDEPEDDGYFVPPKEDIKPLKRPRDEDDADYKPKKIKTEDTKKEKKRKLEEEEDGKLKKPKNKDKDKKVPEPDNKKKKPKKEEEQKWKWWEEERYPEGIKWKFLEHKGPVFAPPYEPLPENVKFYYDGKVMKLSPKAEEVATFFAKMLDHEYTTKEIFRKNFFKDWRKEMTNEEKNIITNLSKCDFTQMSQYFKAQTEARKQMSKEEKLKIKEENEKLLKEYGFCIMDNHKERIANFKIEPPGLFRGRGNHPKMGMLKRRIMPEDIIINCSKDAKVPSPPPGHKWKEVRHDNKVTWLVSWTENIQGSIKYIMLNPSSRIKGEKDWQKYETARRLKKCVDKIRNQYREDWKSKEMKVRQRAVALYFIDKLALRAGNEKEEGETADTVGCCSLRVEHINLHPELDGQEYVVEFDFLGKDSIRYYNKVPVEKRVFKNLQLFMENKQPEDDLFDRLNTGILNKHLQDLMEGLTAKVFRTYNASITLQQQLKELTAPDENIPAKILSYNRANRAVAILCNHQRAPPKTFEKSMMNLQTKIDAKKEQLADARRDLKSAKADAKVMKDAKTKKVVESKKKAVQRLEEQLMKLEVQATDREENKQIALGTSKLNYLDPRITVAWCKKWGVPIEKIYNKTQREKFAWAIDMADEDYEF
# A549 [12] = assay: Anti-migration activity in human A549 cells assessed as distance travelled at 2.5 uM by wound healing assay based phase contrast microscopy; format: functional
# A549 [13] = assay: Induction of apoptosis in human A549 cells assessed as chromatin condensation at 0.625 to 2.5 uM incubated for 48 hrs by DAPI staining based fluorescence microscopic analysis; format: functional, cell-based; settings: dose 0.625-2.5 µM
# A549 [14] = assay: Inhibition of colony formation in human A549 cells assessed as decrease in colonies at 0.625 to 2.5 uM incubated for 7 days by crystal violet staining based assay; format: functional, cell-based; settings: dose 0.625-2.5 µM, time 7.0 day, DDE = dose-dependent effect
# A549 [15] = assay: Induction of apoptosis in human A549 cells assessed as cell membrane disruption at 0.625 to 2.5 uM incubated for 48 hrs by phase contrast microscopy; format: functional, cell-based; settings: dose 0.625-2.5 µM, DDE = dose-dependent effect
# A549 [16] = assay: Anti-migration activity in human A549 cells assessed as distance travelled at 0.625 uM by wound healing assay based phase contrast microscopy; format: functional
# A549 [17] = assay: Induction of apoptosis in human A549 cells assessed as late apoptotic cells at 0.625 to 1.25 uM incubated for 48 hrs by Annexin V-FITC/propidium iodide staining based flow cytometric analysis; format: functional, cell-based; settings: dose 0.625-1.25 µM
# A549 [18] = assay: Induction of apoptosis in human A549 cells assessed as apoptotic body fragmentation at 0.625 to 2.5 uM incubated for 48 hrs by AO/EB staining based fluorescence microscopy; format: functional, cell-based; settings: dose 0.625-2.5 µM, DDE = dose-dependent effect
# A549 [19] = assay: Anti-migration activity in human A549 cells assessed as distance travelled at 1.25 uM by wound healing assay based phase contrast microscopy; format: functional
# A549 [20] = assay: Induction of apoptosis in human A549 cells assessed as membrane blebbing at 0.625 to 2.5 uM incubated for 48 hrs by AO/EB staining based fluorescence microscopy; format: functional, cell-based; settings: dose 0.625-2.5 µM, DDE = dose-dependent effect
# A549 [21] = assay: Induction of apoptosis in human A549 cells assessed as necrotic cells at 0.625 to 2.5 uM incubated for 48 hrs by Annexin V-FITC/propidium iodide staining based flow cytometric analysis; format: functional; settings: dose 0.625-2.5 µM
# A549 [22] = assay: Induction of apoptosis in human A549 cells assessed as changes in nuclear morphology at 0.625 to 2.5 uM incubated for 48 hrs by DAPI staining based fluorescence microscopic analysis; format: functional, cell-based; settings: dose 0.625-2.5 µM
# [23] = target: T2, DNA topoisomerase 1 (Homo sapiens) (UniProt P11387); assay: Inhibition of DNA topoisomerase 1 (unknown origin) assessed as reduction in pBR322 DNA relaxation at 10 uM incubated for 30 mins measured by agarose gel electrophoresis method relative to control
# T2 sequence (whole entry): T1 sequence (P11387 whole entry)
# A549 [24] = assay: Induction of intracellular ROS generation in human A549 cells at 0.625 to 2.5 uM incubated for 48 hrs by […] fluorescence microscopic analysis; format: functional, cell-based; settings: dose 0.625-2.5 µM, DDE = dose-dependent effect
# Calf thymus DNA [25] = assay: Binding affinity to calf thymus DNA assessed as increase in viscosity at 15 uM by ethidium bromide-Hoechst 33342 staining based analysis; format: nucleic-acid assay; settings: Bos taurus
# A549 [26] = assay: Induction of apoptosis in human A549 cells assessed as nuclear fragmentation at 0.625 to 2.5 uM incubated for 48 hrs by DAPI staining based fluorescence microscopic analysis; format: functional, cell-based; settings: dose 0.625-2.5 µM
# A549 [27] = assay: Induction of apoptosis in human A549 cells assessed as changes in cell morphology at 0.625 to 2.5 uM incubated for 48 hrs by phase contrast microscopy; format: functional, cell-based; settings: dose 0.625-2.5 µM
# A549 [28] = assay: Induction of apoptosis in human A549 cells assessed as necrotic cells at 2.5 uM incubated for 48 hrs by Annexin V-FITC/propidium iodide staining based flow cytometric analysis; format: functional
# SK-MEL-28 = assay: Cytotoxicity against human SK-MEL-28 cells assessed as cell growth inhibition incubated for 48 hrs by MTT assay; format: functional, cell-based; settings: SK-MEL-28, 48 h
# A549 [29] = assay: Anti-migration activity in human A549 cells assessed as distance travelled at 0.625 uM incubated for 48 hrs by wound healing assay based phase contrast microscopy; format: functional
# A549 [30] = assay: Induction of apoptosis in human A549 cells assessed as reduction on viable cells at 0.625 to 2.5 uM incubated for 48 hrs by phase contrast microscopy; format: functional, cell-based; settings: dose 0.625-2.5 µM, DDE = dose-dependent effect
# Calf thymus DNA [31] = assay: Binding affinity to calf thymus DNA assessed as hyperchromicity at 10 to 20 uM by UV-Vis spectroscopic analysis; format: nucleic-acid assay; settings: Bos taurus; dose 10-20 µM
# [32] = Cytotoxicity against rat NRK cells assessed as cell growth inhibition incubated for 48 hrs by MTT assay; format: toxicity, cell-based
# Sequence of DNA topoisomerase 2-alpha (Homo sapiens) (P11388 whole entry): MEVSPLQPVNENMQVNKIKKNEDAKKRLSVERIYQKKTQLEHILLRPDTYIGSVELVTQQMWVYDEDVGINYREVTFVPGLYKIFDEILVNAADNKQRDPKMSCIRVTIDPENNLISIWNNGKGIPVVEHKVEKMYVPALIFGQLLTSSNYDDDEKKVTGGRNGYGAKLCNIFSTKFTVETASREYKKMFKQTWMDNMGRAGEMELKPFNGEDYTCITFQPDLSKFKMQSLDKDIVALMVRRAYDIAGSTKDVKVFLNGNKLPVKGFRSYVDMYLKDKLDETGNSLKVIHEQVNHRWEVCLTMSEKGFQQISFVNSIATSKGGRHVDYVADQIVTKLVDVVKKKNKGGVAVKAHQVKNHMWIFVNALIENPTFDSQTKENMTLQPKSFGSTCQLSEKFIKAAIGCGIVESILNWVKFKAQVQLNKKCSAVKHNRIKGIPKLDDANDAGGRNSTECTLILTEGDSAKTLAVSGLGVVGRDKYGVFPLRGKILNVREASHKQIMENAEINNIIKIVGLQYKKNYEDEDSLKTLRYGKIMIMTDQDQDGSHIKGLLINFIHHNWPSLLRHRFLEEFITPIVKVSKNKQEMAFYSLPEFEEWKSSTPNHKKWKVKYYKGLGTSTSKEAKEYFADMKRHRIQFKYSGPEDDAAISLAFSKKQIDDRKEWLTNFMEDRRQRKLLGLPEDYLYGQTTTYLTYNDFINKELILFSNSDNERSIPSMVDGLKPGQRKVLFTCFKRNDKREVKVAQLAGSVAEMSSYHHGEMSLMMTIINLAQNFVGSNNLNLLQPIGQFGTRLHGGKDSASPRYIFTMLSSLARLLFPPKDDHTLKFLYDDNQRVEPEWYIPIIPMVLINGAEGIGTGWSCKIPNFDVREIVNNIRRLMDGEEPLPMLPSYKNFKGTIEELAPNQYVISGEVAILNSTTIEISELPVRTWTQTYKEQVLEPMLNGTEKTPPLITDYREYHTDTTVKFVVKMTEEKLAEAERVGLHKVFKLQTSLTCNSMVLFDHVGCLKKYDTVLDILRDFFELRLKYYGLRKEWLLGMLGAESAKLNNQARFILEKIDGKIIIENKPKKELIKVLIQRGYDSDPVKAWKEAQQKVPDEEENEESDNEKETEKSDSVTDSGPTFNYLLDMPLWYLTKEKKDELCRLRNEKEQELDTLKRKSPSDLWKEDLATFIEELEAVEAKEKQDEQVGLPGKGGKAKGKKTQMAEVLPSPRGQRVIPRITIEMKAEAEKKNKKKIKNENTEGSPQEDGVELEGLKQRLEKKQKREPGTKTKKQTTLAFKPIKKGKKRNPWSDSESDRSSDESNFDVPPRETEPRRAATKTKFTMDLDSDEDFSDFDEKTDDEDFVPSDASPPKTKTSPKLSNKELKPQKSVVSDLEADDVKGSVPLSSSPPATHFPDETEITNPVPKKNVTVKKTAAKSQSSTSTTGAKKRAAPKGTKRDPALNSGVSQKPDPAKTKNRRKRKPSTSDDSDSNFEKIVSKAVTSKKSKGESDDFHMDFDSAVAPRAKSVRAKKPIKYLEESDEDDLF
compound,measurement,setting,value
Cc1ccc(C/N=C2\NC(=O)/C(=C3\CCNC(=O)c4[nH]c5ccccc5c43)S2)cc1,inhibition,[1],Active
same,IC50,A549 [2],1.24 µM
same,Activity,A549 [3],4.8%
same,Activity,A549 [4],Dde
same,IC50,HCT-116,6.55 µM
same,Activity,Calf thymus DNA [5],Active
same,Activity,A549 [6],3.09%
same,Activity,A549 [7],445.52 um
same,Activity,A549 [8],Dde
same,Activity,A549 [9],293.25 um
same,IC50,MCF7,8.03 µM
same,inhibition,A549 [10],Dde
same,IC50,HT-29,10.9 µM
same,Activity,A549 [11],Dde
same,IC50,DNA topoisomerase 1,48 µM
same,Activity,A549 [12],363.56 um
same,Activity,A549 [13],Active
same,inhibition,A549 [14],Dde
same,Activity,A549 [15],Dde
same,Activity,A549 [16],298.42 um
same,Activity,A549 [17],Active
same,Activity,A549 [18],Dde
same,Activity,A549 [19],391.93 um
same,Activity,A549 [20],Dde
same,Activity,A549 [21],2.97%
same,Activity,A549 [22],Active
same,inhibition,[23],28%
same,Activity,A549 [24],Dde
same,Activity,Calf thymus DNA [25],Active
same,Activity,A549 [26],Active
same,Activity,A549 [27],Active
same,Activity,A549 [28],5.96%
same,IC50,SK-MEL-28,3.02 µM
same,Activity,A549 [29],259.59 um
same,Activity,A549 [30],Dde
same,Activity,Calf thymus DNA [31],Active
same,IC50 at 48 h,[32],53.2 µM
